Results published in patent US11111240B2, “Sultam compound and application method thereof” (Chia Tai Tianqing Pharmaceutical Group Co., Ltd., priority 2016, dated 2021).
Where two headings read alike, the source gives them in different places.

Experiments:
U87/IDH1 (R132H) cells = assay: Inhibitory activity on IDH1-mutated U87 cells (2-HG determination); assay type: cell-based; settings: Homo sapiens, U-87 MG
Protocol: In the presence of 2-HG, phosphoglycerate dehydrogenase PHGDH can reduce NAD to NADPH, and the latter may be quantitatively determined by lipoamide dehydrogenase and the substrate thereof, resazurin.
U87 cell is a human glioblastoma cell line with an IDH1 mutation (R132H).
Cells was digested with trypsin, and inoculated into a 6-well plate at a density of 5×10^5, and cultured overnight in an incubator at 37° C. […] Culture medium of each sample was sucked out and centrifuged at 1000 rpm for 10 min. The supernatant was sucked out to detect the content of 2-HG therein. Additionally, cells were washed with PBS (phosphate buffered saline), digested with trypsin and collected. After the collected cells were washed with PBS for one time, the determination of intracellular 2-HG content was performed.
The method for determining the intracellular 2-HG was as follows: cells were re-suspended with 300 μL reaction buffer (40 mM Tris-HCl, pH 8.5; 150 mM NaCl) and disrupted by ultrasonication. They were centrifuged for 10 min at 12,000 rpm and 4° C. to remove insoluble substances. 25 μL supernatant was sucked out to determine the protein concentration by a BCA kit. […]
The measured fluorescence values were compared after being corrected with the protein concentrations of the corresponding samples.

IDH1 (R132C) = IDH1 (R132C) (Homo sapiens (Human), UniProt O75874, R132C); assay: Enzyme assay, IDH1m inhibition (NADPH decrease, diaphorase/resazurin); assay type: biochemical; settings: 40 nM enzyme, 16 h pre-incubation at 23° C.
Sequence of IDH1 (R132C) (O75874 whole entry R132C): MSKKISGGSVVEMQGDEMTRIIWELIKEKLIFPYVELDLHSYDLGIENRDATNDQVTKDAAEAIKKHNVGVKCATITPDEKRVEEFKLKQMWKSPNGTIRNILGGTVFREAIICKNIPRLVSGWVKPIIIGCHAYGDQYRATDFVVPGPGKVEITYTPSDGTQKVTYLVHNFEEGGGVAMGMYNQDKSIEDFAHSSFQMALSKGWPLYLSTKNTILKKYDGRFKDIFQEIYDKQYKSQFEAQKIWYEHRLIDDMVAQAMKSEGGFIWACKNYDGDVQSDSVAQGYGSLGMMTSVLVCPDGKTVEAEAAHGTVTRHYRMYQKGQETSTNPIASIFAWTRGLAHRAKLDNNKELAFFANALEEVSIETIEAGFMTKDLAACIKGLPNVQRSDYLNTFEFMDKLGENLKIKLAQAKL
Excerpt: (§1) Resazurin is a traditional redox dye, and after a redox reaction, it can be reduced from a blue resazurin without fluorescence to a pink fluorescent substance, resorufin, which can be measured and quantified with relative fluorescence unit (RFU) of fluorophotometer (Ex=530-570 nm, Em=590-620 nm). At present, resazurin is widely used for determining the viability of bacteria, cells, etc. and the enzyme activity detection of oxidoreductase. We detected the decrease of cofactor NADPH to determine the inhibitory activity of a compound against IDH1m and detected the generation of cofactor NADPH to determine the inhibitory activity of a compound against IDH WT. The compound was pre-incubated with IDH1m and NADPH, and then the reaction was initiated by adding α-KG and performed for certain time under a linear condition. Then, diaphorase (lipoamide dehydrogenase) and the corresponding substrate resazurin were added thereto for detection. Lipoamide dehydrogenase terminated the IDH1m reaction by decreasing the available cofactor NADPH, which oxidized NADPH to NADP, and reduced resazurin to high fluorescent resorufin. The amount of the remaining cofactor NADPH after a specific reaction time was quantified via an easily detectable fluorophore.
(§2) The specific operation was as follows: 2.5 μl of the compound diluted in a 3-fold gradient was added to a 384-well plate, followed by adding 5 μl of the reaction buffer (20 mM Tris-HCl, pH 7.5; 150 mM NaCl; 10 mM MgCl2; 0.4 mg/mL BSA (Bovine Serum Albumin) and 2 mM DTT (dithiothreitol)) containing 40 nM IDH1 (R132H/R132C) and 20 μM NADPH. Then, the above test mixture was incubated at 23° C. for 16 hours, and then 2.5 μl of the reaction buffer containing 4 mM α-KG was added to initiate the reaction. After they were incubated for 60 minutes at room temperature, 5 μl of the termination mixture (0.4 U/ml diaphorase and 20 μM resazurin) formulated with the reaction buffer was added to convert resazurin to resorufin, so as to measure the amount of the remaining NADPH. After incubating at 23° C. for 10 minutes, fluorescence values were determined through Flexstation 3 at Ex535/Em595. The enzyme activity of each compound was respectively determined at 12 concentrations, and the data were calculated using the software GraFit6.0 (Erithacus Software) to obtain the IC50 value of each compound.

IDH1 (R132H) = IDH1 (R132H) (Homo sapiens (Human), UniProt O75874, R132H); assay: as above; assay type: biochemical; settings: 40 nM enzyme, 16 h pre-incubation at 23° C.
Sequence of IDH1 (R132H) (O75874 whole entry R132H): as the sequence (O75874 whole entry R132C) above, with C132H counted along it
Excerpt: as §1, §2

[1] = Pharmacokinetic experiments in male SD rats, single peroral administration; assay type: in vivo, rat; settings: for Cmax / Tmax / AUC(0-inf) / half-life: plasma; for AUC(0-inf): read-out: AUCINF—obs
Protocol: Male SD rats were from Beijing Vital River Laboratory Animal Technology Co., Ltd., and divided into groups (3 rats per group). The rats were intragastrically administered with the test sample suspension (5 mg/kg) via a single peroral administration, respectively. The animals were fasted overnight before this study. The fasting time period was from 10 hours before administration to 4 hours after administration. Blood samples were taken at 0.25, 0.5, 1, 2, 4, 6, 8 and 24 hours after administration. After the rats were anesthetized with isoflurane using an anesthesia machine for small animal, and then 0.3 mL whole blood samples were taken from the fundus venous plexus. The blood samples were placed in heparin anticoagulant tubes, and centrifuged for 5 min at 4° C. and 4000 rpm. The plasma was transferred to centrifuge tubes, and stored at −80° C. until analysis. The samples in plasma were extracted through protein precipitation. The liquid extract was analyzed by LC-MS/MS, wherein HPLC conditions were as follows: flow rate 0.4 mL/min; mobile phase A: water/formic acid (99.9/0.1, v/v); mobile phase B: acetonitrile/formic acid (99.9/0.1, v/v); injection volume: 5 μL; column temperature: RT; autosampler temperature: RT; run time: 2.5 min.

[2] = rat, male SD rats, oral 5 mg/kg, 0.5% MC, 0.2% Tween80

| SMILES | IC50 (U87/IDH1 (R132H) cells) [µM] | IC50 (IDH1 (R132C)) [µM] | IC50 (IDH1 (R132H)) [µM] | Cmax [1, 2] [µg/mL] | Tmax [1, 2] [h] | AUC(0-inf) [1, 2] [µg·h/mL] | further results |
| --- | --- | --- | --- | --- | --- | --- | --- |
| N#Cc1ccnc(N2[C@H](C(=O)N(c3cncc(F)c3)[C@H](C(=O)NC3CC(F)(F)C3)c3ccccc3Cl)CCS2(=O)=O)c1 [Example 2, (S)—N—((S)-1-(2-chlorophenyl)-2-((3,3-difluorocyclobutyl)amino)-2-oxoethyl)-2-(4-cyanopyridin-2-yl)-N-(5-fluoropyridin-3-yl)-isothiazolidine-3-carboxamide 1,1-dioxide] | 0.0067 | < 0.02 | < 0.02 |  |  |  |  |
| N#Cc1ccnc(N2C(=O)CC[C@H]2C(=O)N(c2cncc(F)c2)[C@H](C(=O)NC2CC(F)(F)C2)c2ccccc2Cl)c1 [AG-120, ivosidenib, reference compound] | 0.046 |  |  | 0.719 | 0.67 | 6.32 | half-life ([1]; rat, male SD rats, oral 5 mg/kg, 0.5% MC, 0.2% Tween80, read-out: T1/2 (converted)): 3.28 h |
| N#Cc1ccnc(N2[C@H](C(=O)N(c3cccc(F)c3)[C@H](C(=O)NC3CC(F)(F)C3)c3ccccc3Cl)CCS2(=O)=O)c1 [Example 12, (S)—N—((S)-1-(2-chlorophenyl)-2-((3,3-difluorocyclobutyl)amino)-2-oxoethyl)-2-(4-cyanopyridin-2-yl)-N-(3-fluorophenyl)-isothiazolidine-3-carboxamide 1,1-dioxide] |  | < 0.02 | < 0.02 | 0.556 | 4 | 10.6 | T1/2 ([1]; male SD rats, oral 5 mg/kg, 0.5% MC, 0.2% Tween80): 10.7 h; half-life ([1]; male, SD, 5 mg/kg, rat, oral, read-out: half-life (converted)): 10.7 h; drug exposure in plasma compared with AG-120 ([1]; rat, same oral dose): far higher than that of AG-120 |
| O=C(NC1CCCCC1)[C@@H](c1ccccc1Cl)N(C(=O)[C@@H]1CCS(=O)(=O)N1c1ncccn1)c1cccc(F)c1 [Example 13, (S)—N—((R)-1-(2-chlorophenyl)-2-(cyclohexylamino)-2-oxoethyl)-2-(pyrimidin-2-yl)-N-(3-fluorophenyl)-isothiazolidine-3-carboxamide 1,1-dioxide] |  |  | < 1 |  |  |  |  |
| N#Cc1ccnc(N2[C@H](C(=O)N(c3cc(F)cc(F)c3)[C@@H](C(=O)NC3CC(F)(F)C3)c3ccccc3Cl)CCS2(=O)=O)c1 [Example 3, (S)—N—((R)-1-(2-chlorophenyl)-2-((3,3-difluorocyclobutyl)amino)-2-oxoethyl)-2-(4-cyanopyridin-2-yl)-N-(3,5-difluorophenyl)-isothiazolidine-3-carboxamide 1,1-dioxide] |  |  | < 0.5 |  |  |  |  |
| O=C(NC1CCCCC1)[C@H](c1ccccc1Cl)N(C(=O)[C@@H]1CCS(=O)(=O)N1c1cc(F)ccn1)c1cccc(F)c1 [Example 18, (S)—N—((S)-1-(2-chlorophenyl)-2-(cyclohexylamino)-2-oxoethyl)-2-(4-fluoropyridin-2-yl)-N-(3-fluorophenyl)-isothiazolidine-3-carboxamide 1,1-dioxide] |  |  | < 0.1 |  |  |  |  |
